# Literature values, collected in PubChem BioAssay AID1259410 (Chemical Carcinogenesis Research Information System (CCRIS), 2018).
# System: rodent tumor promotion studies, tumor incidence
# Experiment: CCRIS tumor promotion studies
compound,measurement,setting,value
O=C1NS(=O)(=O)c2ccccc21,outcome,"Carcinogen: FREEZE ULCERATION, Doses [Promoter]: 0, 5% IN DIET BEGINNING IMMEDIATELY, 2, 4, 6 OR 18 WK AFTER ULCERATION OF THE BLADDER BY FREEZING AND CONTINUING FOR DUR, Route [Promoter]: ORAL, Species: RAT, Strain/Sex: F344/MALE",urinary bladder: transitional cell carcinoma
same,outcome,"Carcinogen: METHYLNITROSOUREA, Doses [Carcinogen]: BLADDER IMP, Doses [Promoter]: IN DIET, Route [Carcinogen]: BLADDER IMPLANT, Route [Promoter]: ORAL, Species: RAT, Strain/Sex: WISTAR/FEMALE",urinary bladder
same,outcome,"Carcinogen: N-(4-(5-NITRO-2-FURYL)-2-THIAZOLYL)FORMAMIDE, 24554-26-5, Doses [Carcinogen]: 0.2% IN AIN-76A DIET FOR 4 WK, Doses [Promoter]: 0, 5% IN PROLAB DIET BEGINNING 1 WK POST CARCINOGEN TREATMENT AND CONTINUING FOR 100 WK (STUDY DURATION: 105 WK), Route [Carcinogen]: ORAL, Route [Promoter]: ORAL, Species: RAT, Strain/Sex: F344/MALE",bladder: papilloma and carcinoma
same,outcome,"Carcinogen: N-(4-(5-NITRO-2-FURYL)-2-THIAZOLYL)FORMAMIDE, 24554-26-5, Doses [Carcinogen]: 0.2% IN PROLAB DIET FOR 4 WK, Doses [Promoter]: 0, 5% IN PROLAB DIET BEGINNING 1 WK POST CARCINOGEN TREATMENT AND CONTINUING FOR 100 WK (STUDY DURATION: 105 WK), Route [Carcinogen]: ORAL, Route [Promoter]: ORAL, Species: RAT, Strain/Sex: F344/MALE",bladder: papilloma and carcinoma
same,outcome,"Carcinogen: N-(4-(5-NITRO-2-FURYL)-2-THIAZOLYL)FORMAMIDE, Doses [Carcinogen]: DIET, Doses [Promoter]: IN DIET, Route [Carcinogen]: ORAL, Route [Promoter]: ORAL, Species: RAT, Strain/Sex: F344/MALE",urinary bladder: carcinoma
same,outcome,"Carcinogen: N-BUTYL-N-4(HYDROXYBUTYL)NITROSAMINE, 3817-11-6, Doses [Carcinogen]: 0.05% IN DRINKING WATER FOR 2 WK, Doses [Promoter]: 0, 5% IN DIET STARTING POST CARCINOGEN AND CONTINUING FOR 22 WK, LEFT URETER LIGATED 8 D POST CARCINOGEN (STUDY DURATION, Route [Carcinogen]: ORAL, Route [Promoter]: ORAL, Species: RAT, Strain/Sex: F344/MALE",bladder: papilloma
same,outcome,"Carcinogen: N-BUTYL-N-(4-HYDROXYBUTYL)NITROSAMINE, 3817-11-6, Doses [Carcinogen]: 0.05% IN DRINKING WATER FOR 4 WK, Doses [Promoter]: 0, 5% IN DIET FOR 32 WK POST CARCINOGEN DOSE (STUDY DURATION: 36 WK), Route [Carcinogen]: ORAL, Route [Promoter]: ORAL, Species: RAT, Strain/Sex: F344/MALE",bladder: carcinoma or papilloma
same,outcome,"Carcinogen: N-[4-(5-NITRO-2-FURYL)-2-THIAZOLYL]FORMAMIDE, 24554-26-5, Doses [Carcinogen]: 0.2% IN DIET FOR 6 WK, Doses [Promoter]: 0, 5% IN PROLAB DIET FOR 72 WK BEGINNING POST CARCINOGEN TREATMENT (STUDY DURATION: 78 WK), Route [Carcinogen]: ORAL, Route [Promoter]: ORAL, Species: RAT, Strain/Sex: F344/MALE","urinary bladder: carcinoma, carcinoma or papilloma"
same,outcome,"Carcinogen: N-[4-(5-NITRO-2-FURYL)-2-THIAZOLYL]FORMAMIDE, Doses [Carcinogen]: 0.2% IN DIET FOR 6 WK, Doses [Promoter]: 0, 3% IN PROLAB DIET FOR 72 WK BEGINNING POST CARCINOGEN TREATMENT (STUDY DURATION: 78 WK), Route [Carcinogen]: ORAL, Route [Promoter]: ORAL, Species: RAT, Strain/Sex: F344/MALE","urinary bladder: carcinoma, carcinoma or papilloma"
C=CC(C)(C)c1ccc2c3c(c[nH]c13)C[C@@H](CO)NC(=O)[C@H](C(C)C)N2C,outcome,"Carcinogen: DIMETHYLBENZ[A]ANTHRACENE, 57-97-6, Doses [Carcinogen]: 100 UG IN 100 µL ACETONE APPLIED TO THE BACK ONCE, Doses [Promoter]: 5 UG IN 100 ML ACETONE APPLIED TO THE BACK 2/WK FOR 15 WK BEGINNING 1 WK POST CARCINOGEN DOSE THEN 10 UG 2/WK FOR 15 WK, Route [Carcinogen]: DERMAL, Route [Promoter]: DERMAL, Species: MOUSE, Strain/Sex: CD-1/FEMALE",skin: papilloma
C#C[C@]1(O)CC[C@H]2[C@@H]3CCc4cc(O)ccc4[C@H]3CC[C@@]21C,outcome,"Carcinogen: 3,2'-DIMETHYL-4-AMINOBIPHENYL, 13394-86-0, Doses [Carcinogen]: 100 MG/KG 1/WK FOR 20 WK, Doses [Promoter]: 0, 0.75 PPM IN DIET FOR DURATION OF STUDY (STUDY DURATION: 50 WK), Route [Carcinogen]: SUBCUTANEOUS, Route [Promoter]: ORAL, Species: HAMSTER, Strain/Sex: SYRIAN/FEMALE",gallbladder: adenoma or adenocarcinoma
same,outcome,"Carcinogen: 3,2'-DIMETHYL-4-AMINOBIPHENYL, 13394-86-0, Doses [Carcinogen]: 100 MG/KG 1/WK FOR 20 WK, Doses [Promoter]: 0, 0.75 PPM IN DIET FOR DURATION OF STUDY (STUDY DURATION: 50 WK), Route [Carcinogen]: SUBCUTANEOUS, Route [Promoter]: ORAL, Species: HAMSTER, Strain/Sex: SYRIAN/MALE",gallbladder: adenoma or adenocarcinoma
same,outcome,"Carcinogen: 7,12-DIMETHYLBENZ[A]ANTHRACENE (DMBA) [57-97-6]AND N-BIS(2-HYROXYPROPYL)NITROSOSAMINE (DHPN) [53609-64-6], Doses [Carcinogen]: DMBA-SINGLE DOSE OF 50 MG/KG BW AT 7 WKS OF AGE, DHPN- 0.2% IN WATER WKS 6-14 OF AGE (STUDY DURATION: 27 WKS FOR MALES;, Doses [Carcinogen]: DMBA-SINGLE DOSE OF 50 MG/KG BW AT 7 WKS OF AGE, DHPN- 0.2% IN WATER WKS 6-14 OF AGE (STUDY DURATION: 27 WKS FOR MALES;, Doses [Promoter]: 0, 0.2, 1% IN DIET (STUDY DURATION: 27 AND 36 WKS FOR MALES AND FEMALES RESPECTIVELY), Doses [Promoter]: 0, 0.2, 1% IN DIET (STUDY DURATION: 27 AND 36 WKS FOR MALES AND FEMALES RESPECTIVELY), Route [Carcinogen]: ORAL (DMBA, GAVAGE; DHPN, DRINKING WATER), Route [Promoter]: MATERNAL MILK TO 3 WKS OF AGE, DIET FROM WKS 3 TO 6 OF AGE, Species: RAT, Strain/Sex: F344/FEMALE, MALE",negative
same,outcome,"Carcinogen: DIETHYLNITROSAMINE, 55-18-5, Doses [Carcinogen]: 100 MG/KG ONCE, Doses [Promoter]: 0, 10 PPM (0.5 MG/KG/D) 2 MO POST CARCINOGEN DOSE AND CONTINUING FOR 8 MO (STUDY DURATION: 12 MO), Route [Carcinogen]: INTRAPERITONEAL, Route [Promoter]: ORAL, Species: RAT, Strain/Sex: CD-1/FEMALE",liver: carcinoma/neoplastic nodules
same,outcome,"Carcinogen: DIETHYLNITROSAMINE, 55-18-5, Doses [Carcinogen]: 100 MG/KG ONCE, Doses [Promoter]: 0, 10 PPM (0.5 MG/KG/D) 2 MO POST CARCINOGEN DOSE AND CONTINUING FOR 8 MO (STUDY DURATION: 12 MO), Route [Carcinogen]: INTRAPERITONEAL, Route [Promoter]: ORAL, Species: RAT, Strain/Sex: CD-1/MALE",liver: carcinoma/neoplastic nodules
same,outcome,"Carcinogen: DIETHYLNITROSAMINE, 55-18-5, Doses [Carcinogen]: 200 MG/KG ONCE, Doses [Promoter]: 0, 160-210 UG/KG BW DAILY FROM RELEASE PELLETS FOR 30 WK BEGINNING 2 WK POST CARCINOGEN DOSE (STUDY DURATION: 30 WK), Route [Carcinogen]: INTRAPERITONEAL, Route [Promoter]: SUBCUTANEOUS, Species: RAT, Strain/Sex: WISTAR/FEMALE",liver: hepatocellular carcinoma
Cc1cccc(C)c1N,outcome,"Carcinogen: N-BIS(2-HYDROXYPROPYL)NITROSAMINE) [53609-64-6], Doses [Carcinogen]: 2400 MG/KG BW ONCE (STUDY DURATION: 53 WK), Doses [Promoter]: 3000 PPM IN DIET FOR 52 WK BEGINNING 1 WK POST LAST CARCINOGEN DOSE (STUDY DURATION: 53 WK), Route [Carcinogen]: SUBCUTANEOUS, Route [Promoter]: ORAL, Species: RAT, Strain/Sex: F344/MALE",nasal cavity: carcinoma
O=C1c2c(O)cccc2Cc2cccc(O)c21,outcome,"Carcinogen: 7,12-DIMETHYLBENZ(A)ANTHRACENE, Doses [Carcinogen]: TOP, Route [Carcinogen]: DERMAL, Route [Promoter]: DERMAL, Species: MOUSE, Strain/Sex: MALE,FEMALE",integumentary system (skin)
CCC1(CC)C(=O)NC(=O)NC1=O,outcome,"Carcinogen: DIETHYLNITROSAMINE, 55-18-5, Doses [Carcinogen]: 80 MG/KG BW ONCE, Doses [Promoter]: 0, 0.5% IN DIET FOR 39 WK BEGINNING 1 WK POST CARCINOGEN DOSE (STUDY DURATION: 40 WK), Route [Carcinogen]: INTRAPERITONEAL, Route [Promoter]: ORAL, Species: RAT, Strain/Sex: F344/MALE",liver: tumor
NC(=O)c1cccnc1,outcome,"Carcinogen: DIETHYLNITROSAMINE, 55-18-5, Doses [Carcinogen]: 25 MG/KG ONCE PRECEDED 24 HR BY 70% PARTIAL HEPATECTOMY, Doses [Promoter]: 0, 6.7, 30 MILLIMOLAR IN DRINKING WATER BEGINNING 2 WK POST CARCINOGEN DOSE (STUDY DURATION: 20 MO), Doses [Promoter]: 0, 6.7, 30 MILLIMOLAR IN DRINKING WATER BEGINNING 2 WK POST CARCINOGEN DOSE (STUDY DURATION: 20 MO), Route [Carcinogen]: INTRAPERITONEAL, Route [Promoter]: ORAL, Species: RAT, Strain/Sex: F344/MALE",kidney: tumor
C=CCC1(CC=C)C(=O)NC(=O)NC1=O,outcome,"Carcinogen: N-NITROSODIETHYLAMINE, 55-18-5, Doses [Carcinogen]: 75 MG/KG BW IN 0.85% SALINE ONCE, Doses [Promoter]: 0, 440 PPM IN DIET FOR DURATION OF STUDY BEGINNING 2 WK POST CARCINOGEN DOSE (STUDY DURATION: 78 WK), Route [Carcinogen]: INTRAPERITONEAL, Route [Promoter]: ORAL, Species: RAT, Strain/Sex: F344/MALE","liver: adenoma, carcinoma"
CCCCCCCC/C=C\CCCCCCCC(=O)OC1CC2CCC1(C)C2(C)C (configuration not stated),outcome,"Carcinogen: 7,12-DIMETHYLBENZ(A)ANTHRACENE, Doses [Carcinogen]: TOP, Route [Carcinogen]: DERMAL, Route [Promoter]: DERMAL, Species: MOUSE, Strain/Sex: FEMALE",integumentary system (skin)
